US12343326B2, “Psychoactive medicines and their use for treating psychiatric and neurological conditions and disorders” (Transcend Therapeutics, Inc., priority 2021, dated 2025)

Columns and labels:
Test in all cases: β-arrestin based GPCR screen (PathHunter / GPCRmax), antagonist mode
168 GPCRs [1] = molecular target: 168 GPCRs (Homo sapiens, UniProt P35368); settings: ADRA1B, Antagonist
168 GPCRs [2] = molecular target: T1, 168 GPCRs (Homo sapiens, UniProt P32248); settings: CCR7, Antagonist
T1 sequence (P32248 25-378): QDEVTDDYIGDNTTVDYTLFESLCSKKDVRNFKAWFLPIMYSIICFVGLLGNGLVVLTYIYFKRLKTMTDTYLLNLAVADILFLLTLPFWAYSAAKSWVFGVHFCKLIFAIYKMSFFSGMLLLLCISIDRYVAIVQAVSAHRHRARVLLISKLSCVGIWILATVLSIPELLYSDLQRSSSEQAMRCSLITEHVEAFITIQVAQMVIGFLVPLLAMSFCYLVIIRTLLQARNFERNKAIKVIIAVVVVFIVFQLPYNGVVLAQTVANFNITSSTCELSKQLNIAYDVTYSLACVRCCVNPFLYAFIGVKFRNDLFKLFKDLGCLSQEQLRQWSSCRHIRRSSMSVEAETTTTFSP

168 GPCRs [3] = molecular target: 168 GPCRs (Homo sapiens, UniProt P25101); settings: EDNRA
168 GPCRs [4] = molecular target: 168 GPCRs (Homo sapiens, UniProt P08913); settings: ADRA2A, Antagonist
168 GPCRs [5] = molecular target: 168 GPCRs (Homo sapiens, UniProt O95136)
168 GPCRs [6] = molecular target: 168 GPCRs (Homo sapiens, UniProt Q8TDV5)
168 GPCRs [7] = molecular target: 168 GPCRs (Homo sapiens, UniProt Q9H1C0)
168 GPCRs [8] = molecular target: 168 GPCRs (Homo sapiens, UniProt P25090)
168 GPCRs [9] = molecular target: 168 GPCRs (Homo sapiens, UniProt P30518); settings: AVPR2, Antagonist
168 GPCRs [10] = molecular target: 168 GPCRs (Homo sapiens, UniProt P25103)
168 GPCRs [11] = molecular target: 168 GPCRs (Homo sapiens, UniProt P43220); settings: GLP1R
168 GPCRs [12] = molecular target: 168 GPCRs (Homo sapiens, UniProt Q9P296); settings: C5L2, Antagonist
168 GPCRs [13] = molecular target: 168 GPCRs (Homo sapiens, UniProt P49682)
168 GPCRs [14] = molecular target: T2, 168 GPCRs (Homo sapiens, UniProt Q9Y5Y4)
T2 sequence (Q9Y5Y4 1-395): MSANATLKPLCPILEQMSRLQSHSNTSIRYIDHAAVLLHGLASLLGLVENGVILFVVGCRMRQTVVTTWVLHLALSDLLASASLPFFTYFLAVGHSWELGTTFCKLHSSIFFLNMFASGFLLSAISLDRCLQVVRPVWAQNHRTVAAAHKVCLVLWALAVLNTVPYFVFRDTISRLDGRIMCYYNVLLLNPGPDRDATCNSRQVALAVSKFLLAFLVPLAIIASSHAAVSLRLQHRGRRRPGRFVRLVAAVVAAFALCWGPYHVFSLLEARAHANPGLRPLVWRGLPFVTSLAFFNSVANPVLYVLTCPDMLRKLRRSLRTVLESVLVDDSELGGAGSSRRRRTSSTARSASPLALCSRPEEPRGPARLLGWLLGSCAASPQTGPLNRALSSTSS

168 GPCRs [15] = molecular target: 168 GPCRs (Homo sapiens, UniProt O43614)
168 GPCRs [16] = molecular target: 168 GPCRs (Homo sapiens, UniProt Q92847); settings: GHSR
168 GPCRs [17] = molecular target: 168 GPCRs (Homo sapiens, UniProt P51677); settings: CCR3, Antagonist
168 GPCRs [18] = molecular target: 168 GPCRs (Homo sapiens, UniProt Q9H244)
Sequence of 168 GPCRs (Homo sapiens, UniProt Q9H244) (Q9H244 whole entry): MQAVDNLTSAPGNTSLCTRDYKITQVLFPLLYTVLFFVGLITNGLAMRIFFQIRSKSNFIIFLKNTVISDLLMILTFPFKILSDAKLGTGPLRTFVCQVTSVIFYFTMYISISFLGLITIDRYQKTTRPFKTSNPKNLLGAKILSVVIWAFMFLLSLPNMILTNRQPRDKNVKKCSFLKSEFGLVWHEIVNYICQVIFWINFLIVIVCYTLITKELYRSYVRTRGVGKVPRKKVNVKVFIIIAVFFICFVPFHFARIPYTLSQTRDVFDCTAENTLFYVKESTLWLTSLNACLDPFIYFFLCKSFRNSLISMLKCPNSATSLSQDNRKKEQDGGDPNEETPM

Sequence of 168 GPCRs (Homo sapiens, UniProt P35368) (P35368 whole entry): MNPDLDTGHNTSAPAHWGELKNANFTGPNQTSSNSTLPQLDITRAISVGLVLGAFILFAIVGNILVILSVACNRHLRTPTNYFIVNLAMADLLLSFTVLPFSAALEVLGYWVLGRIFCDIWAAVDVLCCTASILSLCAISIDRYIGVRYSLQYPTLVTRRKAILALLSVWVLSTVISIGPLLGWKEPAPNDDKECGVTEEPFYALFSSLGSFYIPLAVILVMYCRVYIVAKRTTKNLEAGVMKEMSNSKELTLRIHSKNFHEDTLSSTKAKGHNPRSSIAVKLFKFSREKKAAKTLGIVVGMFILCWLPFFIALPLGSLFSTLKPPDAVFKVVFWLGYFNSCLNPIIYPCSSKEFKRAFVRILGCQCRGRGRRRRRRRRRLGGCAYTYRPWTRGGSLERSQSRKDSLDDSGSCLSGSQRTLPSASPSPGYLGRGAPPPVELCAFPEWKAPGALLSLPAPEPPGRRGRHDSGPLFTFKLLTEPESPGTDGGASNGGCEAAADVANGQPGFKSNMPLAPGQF
Sequence of 168 GPCRs (Homo sapiens, UniProt P49682) (P49682 whole entry): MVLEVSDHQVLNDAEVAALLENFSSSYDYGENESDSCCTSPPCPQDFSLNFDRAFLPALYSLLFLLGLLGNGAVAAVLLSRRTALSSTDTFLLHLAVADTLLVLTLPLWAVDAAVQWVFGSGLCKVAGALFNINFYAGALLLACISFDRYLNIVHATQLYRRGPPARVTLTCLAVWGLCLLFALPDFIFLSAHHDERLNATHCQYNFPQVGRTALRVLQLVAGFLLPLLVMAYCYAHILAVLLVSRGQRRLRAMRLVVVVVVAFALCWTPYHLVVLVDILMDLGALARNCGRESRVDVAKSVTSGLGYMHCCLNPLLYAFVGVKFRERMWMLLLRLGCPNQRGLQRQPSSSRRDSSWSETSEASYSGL
Sequence of 168 GPCRs (Homo sapiens, UniProt P30518) (P30518 whole entry): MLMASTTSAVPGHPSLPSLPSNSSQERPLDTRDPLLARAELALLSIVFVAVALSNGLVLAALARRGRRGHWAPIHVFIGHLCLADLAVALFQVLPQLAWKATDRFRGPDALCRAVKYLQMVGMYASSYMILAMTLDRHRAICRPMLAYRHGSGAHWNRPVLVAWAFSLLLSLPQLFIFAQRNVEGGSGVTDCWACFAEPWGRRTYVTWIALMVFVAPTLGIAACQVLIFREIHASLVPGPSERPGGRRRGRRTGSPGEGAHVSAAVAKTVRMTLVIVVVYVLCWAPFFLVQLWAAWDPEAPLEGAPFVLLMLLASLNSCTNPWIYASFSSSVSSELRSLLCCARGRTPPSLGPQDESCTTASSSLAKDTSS
Sequence of 168 GPCRs (Homo sapiens, UniProt P08913) (P08913 whole entry): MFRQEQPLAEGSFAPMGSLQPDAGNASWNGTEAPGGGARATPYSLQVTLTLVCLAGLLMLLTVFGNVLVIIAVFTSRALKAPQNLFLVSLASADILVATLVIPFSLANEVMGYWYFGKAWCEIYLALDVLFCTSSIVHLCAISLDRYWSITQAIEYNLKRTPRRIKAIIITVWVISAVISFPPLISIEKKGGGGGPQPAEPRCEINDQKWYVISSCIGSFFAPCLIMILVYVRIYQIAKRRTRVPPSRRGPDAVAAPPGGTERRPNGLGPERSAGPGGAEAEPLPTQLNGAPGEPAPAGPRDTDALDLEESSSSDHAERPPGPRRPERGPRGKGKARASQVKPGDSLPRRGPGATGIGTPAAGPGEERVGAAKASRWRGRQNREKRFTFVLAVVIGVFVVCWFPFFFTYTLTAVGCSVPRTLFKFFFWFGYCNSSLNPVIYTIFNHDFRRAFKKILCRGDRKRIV
Sequence of 168 GPCRs (Homo sapiens, UniProt P51677) (P51677 whole entry): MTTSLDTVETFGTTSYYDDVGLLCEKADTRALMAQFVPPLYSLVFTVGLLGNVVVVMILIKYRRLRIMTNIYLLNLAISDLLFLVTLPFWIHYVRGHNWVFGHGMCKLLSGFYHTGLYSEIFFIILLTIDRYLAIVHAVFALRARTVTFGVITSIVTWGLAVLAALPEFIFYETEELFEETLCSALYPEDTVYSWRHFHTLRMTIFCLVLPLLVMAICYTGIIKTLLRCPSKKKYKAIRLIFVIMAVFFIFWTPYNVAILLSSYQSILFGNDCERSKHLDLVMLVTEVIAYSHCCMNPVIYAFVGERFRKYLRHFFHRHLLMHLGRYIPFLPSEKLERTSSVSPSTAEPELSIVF
Sequence of 168 GPCRs (Homo sapiens, UniProt Q9H1C0) (Q9H1C0 whole entry): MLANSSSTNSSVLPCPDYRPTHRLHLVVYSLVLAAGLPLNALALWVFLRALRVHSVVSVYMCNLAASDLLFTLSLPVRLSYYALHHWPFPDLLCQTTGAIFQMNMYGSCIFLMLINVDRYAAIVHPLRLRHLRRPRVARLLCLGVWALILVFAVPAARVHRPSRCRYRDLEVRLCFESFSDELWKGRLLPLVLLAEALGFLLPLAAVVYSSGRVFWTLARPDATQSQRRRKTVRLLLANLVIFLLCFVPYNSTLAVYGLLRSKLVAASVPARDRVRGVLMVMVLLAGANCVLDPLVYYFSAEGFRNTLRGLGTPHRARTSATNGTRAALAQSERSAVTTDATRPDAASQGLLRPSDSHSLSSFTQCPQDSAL
Sequence of 168 GPCRs (Homo sapiens, UniProt O43614) (O43614 whole entry): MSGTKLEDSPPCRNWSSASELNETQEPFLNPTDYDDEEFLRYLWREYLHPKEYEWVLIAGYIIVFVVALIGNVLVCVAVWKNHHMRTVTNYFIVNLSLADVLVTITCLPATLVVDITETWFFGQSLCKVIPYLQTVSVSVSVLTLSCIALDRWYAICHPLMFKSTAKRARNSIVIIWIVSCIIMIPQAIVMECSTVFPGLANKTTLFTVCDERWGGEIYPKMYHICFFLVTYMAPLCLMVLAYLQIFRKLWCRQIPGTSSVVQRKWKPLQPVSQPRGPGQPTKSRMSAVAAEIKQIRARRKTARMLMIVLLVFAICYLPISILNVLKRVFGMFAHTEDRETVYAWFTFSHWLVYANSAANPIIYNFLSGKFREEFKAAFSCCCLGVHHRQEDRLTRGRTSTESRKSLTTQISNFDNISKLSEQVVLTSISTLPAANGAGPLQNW
Sequence of 168 GPCRs (Homo sapiens, UniProt O95136) (O95136 whole entry): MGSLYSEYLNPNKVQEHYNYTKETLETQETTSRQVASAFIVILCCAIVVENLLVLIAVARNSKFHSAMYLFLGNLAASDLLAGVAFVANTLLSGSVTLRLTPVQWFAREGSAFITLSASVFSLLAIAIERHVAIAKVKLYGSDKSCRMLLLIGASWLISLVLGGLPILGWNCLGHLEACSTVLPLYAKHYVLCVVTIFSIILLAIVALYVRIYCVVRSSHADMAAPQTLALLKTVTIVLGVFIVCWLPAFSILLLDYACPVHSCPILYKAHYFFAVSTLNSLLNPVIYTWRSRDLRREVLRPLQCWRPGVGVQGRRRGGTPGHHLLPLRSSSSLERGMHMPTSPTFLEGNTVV
Sequence of 168 GPCRs (Homo sapiens, UniProt P25101) (P25101 21-427): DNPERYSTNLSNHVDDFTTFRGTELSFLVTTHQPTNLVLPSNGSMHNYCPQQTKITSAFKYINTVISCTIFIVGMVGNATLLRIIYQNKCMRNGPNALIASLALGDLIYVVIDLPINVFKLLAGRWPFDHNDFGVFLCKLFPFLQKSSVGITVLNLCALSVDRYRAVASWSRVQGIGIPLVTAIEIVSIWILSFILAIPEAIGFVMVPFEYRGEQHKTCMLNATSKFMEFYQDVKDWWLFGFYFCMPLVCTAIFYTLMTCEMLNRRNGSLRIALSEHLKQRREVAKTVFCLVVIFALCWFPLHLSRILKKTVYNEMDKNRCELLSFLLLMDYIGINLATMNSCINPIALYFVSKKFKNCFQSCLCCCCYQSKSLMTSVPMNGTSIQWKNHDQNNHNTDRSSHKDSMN
Sequence of 168 GPCRs (Homo sapiens, UniProt Q9P296) (Q9P296 whole entry): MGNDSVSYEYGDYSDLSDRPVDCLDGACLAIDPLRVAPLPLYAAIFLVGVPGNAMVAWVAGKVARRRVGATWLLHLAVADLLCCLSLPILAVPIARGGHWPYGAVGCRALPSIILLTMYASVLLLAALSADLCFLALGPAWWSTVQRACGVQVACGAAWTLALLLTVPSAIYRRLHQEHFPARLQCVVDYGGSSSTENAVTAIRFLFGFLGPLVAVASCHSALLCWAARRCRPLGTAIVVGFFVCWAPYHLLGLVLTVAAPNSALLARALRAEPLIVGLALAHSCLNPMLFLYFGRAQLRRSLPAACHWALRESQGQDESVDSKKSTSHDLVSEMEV
Sequence of 168 GPCRs (Homo sapiens, UniProt P25090) (P25090 whole entry): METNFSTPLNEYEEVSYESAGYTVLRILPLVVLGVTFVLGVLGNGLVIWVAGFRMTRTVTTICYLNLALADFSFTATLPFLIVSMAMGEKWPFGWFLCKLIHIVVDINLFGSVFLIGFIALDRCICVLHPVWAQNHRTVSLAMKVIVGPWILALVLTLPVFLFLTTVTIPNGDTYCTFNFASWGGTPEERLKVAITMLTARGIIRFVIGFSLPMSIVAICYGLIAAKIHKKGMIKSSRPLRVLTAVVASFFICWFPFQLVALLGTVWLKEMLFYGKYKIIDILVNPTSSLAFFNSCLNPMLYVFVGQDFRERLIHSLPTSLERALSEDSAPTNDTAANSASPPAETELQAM

`CNC(C)C(=O)c1ccc2c(c1)OCO2` (stereo not drawn) [methylone, 3,4-methylenedioxy-N-methylcathinone] was tested, and the activity at 1 µM (168 GPCRs [1]; 1 uM) was 17.9%, the activity at 10 µM (168 GPCRs [1]; 10 uM) was 20.6% and the activity at 1 µM (168 GPCRs [2]; 1 uM) was -8.3%. For the same compound, the activity at 10 µM (168 GPCRs [2]; 10 uM) was -3.4%, the activity at 10 µM (168 GPCRs [3]; Antagonist mode, 10 uM) was -11.3% and the activity at 1 µM (168 GPCRs [3]; Antagonist, 1 uM) was -2.4%. The activity at 1 µM (168 GPCRs [4]; 1 uM) was -4.6%, the activity at 10 µM (168 GPCRs [4]; 10 uM) was 1.9% and the activity at 10 µM (168 GPCRs [5]; EDG5, Antagonist mode, 10 uM) was -6.3%. For the same compound, the activity at 1 µM (168 GPCRs [5]; EDG5, Antagonist, 1 uM) was -3.4%, the activity at 10 µM (168 GPCRs [6]; GPR119, Antagonist mode, 10 uM) was -8.8% and the activity at 1 µM (168 GPCRs [6]; GPR119, Antagonist, 1 uM) was 17.1%. It also gave an activity at 10 µM (168 GPCRs [7]; GPR92, Antagonist mode, 10 uM) of 5.8%, an activity at 1 µM (168 GPCRs [7]; GPR92, Antagonist, 1 uM) of -8% and an activity at 10 µM (168 GPCRs [8]; FPRL1, Antagonist mode, 10 uM) of 3.9%. For the same compound, the activity at 1 µM (168 GPCRs [8]; FPRL1, Antagonist, 1 uM) was 12.3%, the activity at 1 µM (168 GPCRs [9]; 1 uM) was -2.7% and the activity at 10 µM (168 GPCRs [9]; 10 uM) was -14.8%. The activity at 10 µM (168 GPCRs [10]; TACR1, Antagonist mode, 10 uM) was 8.9%, the activity at 1 µM (168 GPCRs [10]; TACR1, Antagonist, 1 uM) was 15.2% and the activity at 10 µM (168 GPCRs [11]; Antagonist mode, 10 uM) was -0.9%. The activity at 1 µM (168 GPCRs [11]; Antagonist, 1 uM) was 3.4%, the activity at 1 µM (168 GPCRs [12]; 1 uM) was 10% and the activity at 10 µM (168 GPCRs [12]; 10 uM) was 1.4%. For the same compound, the activity at 10 µM (168 GPCRs [13]; CXCR3, Antagonist mode, 10 uM) was -3.9%, the activity at 1 µM (168 GPCRs [13]; CXCR3, Antagonist, 1 uM) was 4.5% and the activity at 10 µM (168 GPCRs [14]; CRTH2, Antagonist mode, 10 uM) was 8.9%. It also gave an activity at 1 µM (168 GPCRs [14]; CRTH2, Antagonist, 1 uM) of 9%, an activity at 10 µM (168 GPCRs [15]; HCRTR2, Antagonist mode, 10 uM) of 2.4% and an activity at 1 µM (168 GPCRs [15]; HCRTR2, Antagonist, 1 uM) of 6.4%. It also gave an activity at 10 µM (168 GPCRs [16]; Antagonist mode, 10 uM) of 9.1%, an activity at 1 µM (168 GPCRs [16]; Antagonist, 1 uM) of 25.8% and an activity at 1 µM (168 GPCRs [17]; 1 uM) of -11.8%. For the same compound, the activity at 10 µM (168 GPCRs [17]; 10 uM) was -4%, the activity at 10 µM (168 GPCRs [18]; P2RY12, Antagonist mode, 10 uM) was -10.4% and the activity at 1 µM (168 GPCRs [18]; P2RY12, Antagonist, 1 uM) was -14.8%.
